Assay results from article PMC6486608, “A cell-penetrating peptide blocks Toll-like receptor-mediated downstream signaling and ameliorates autoimmune and inflammatory diseases in mice” (Experimental & Molecular Medicine, 2019).
Ends that are not written are not given here.

T1: TLR4 TIR domain BB loop peptide (Homo sapiens)
T1 chain: RDFIPGVAIAA


What was measured:
[1] = test system: TLR4 (HEK-Blue hTLR4 cells); assay: SEAP activity (NF-κB), HEK-Blue hTLR4, LPS; type: cell-based; conditions: n ≥ 3; for LPS-induced NF-κB activity (SEAP), peptides in the absence of CPP: not conjugated with CPP
Description: (§1) HEK-Blue-hTLR4 cells were seeded at a density of 2 × 10^5 cells/well and grown overnight in 24-well plates (BD Biosciences). The next day, the supernatant was removed, and the medium was replaced with fresh medium. Aliquots of supernatants (200 µl) from the treated cells were transferred to microcentrifuge tubes and heated for 10 min at 65 °C on a heating block (FINEPCR Co., Seoul, Korea). The supernatants were then transferred into new 96-well plates (BD Biosciences), and SEAP production was quantified using the HEK-Blue detection kit (InvivoGen). HEK-Blue IL-1R cells were seeded at a density of 2 × 10^5 cells/well and grown in 24-well plates (BD Biosciences) overnight, and SEAP production was measured by means of QUANTI-Blue (InvivoGen). Absorbance was measured on a microplate reader (spectrophotometry system; Molecular Devices Inc., Silicon Valley, CA, USA) or a Cytation 5 Cell Imaging Multi-Mode Reader (Bio-Tek Instruments, Winooski, VT, USA) at 620 nm.
The TLR4-mediated response to LPS leads to a direct interaction between the TIR domains of TIRAP and MyD88, resulting in the subsequent activation of the MyD88-dependent downstream cascade. On the other hand, LPS-induced activation of TLR4 can cause the interaction between the TIR domains of TRAM and TRIF, which thereafter initiates MyD88-independent downstream signaling. Multiple peptides were designed from the TIR domain of TIRAP to possibly target the TIR domain of TLR4. […] The inhibitory effects of the peptides (TIP1 and TIP2) in the absence of CPP were evaluated by measuring the SEAP activity in HEK-Blue hTLR4 cells. […] To evaluate the specific binding of TIP1 to TLRs, we measured the NF-κB activity and protein expression of NF-κB and MAPKs by the SEAP activity assay and western blotting in HEK-Blue IL-1R cells. […]

[2] = test system: TLR signaling (RAW 264.7 cells); assay: TNF-α ELISA, RAW 264.7, peptides not conjugated with CPP; type: cell-based, mouse; conditions: TIP1 without CPP 12.5, 25, and 50 µM (Fig. 2l); Poly(I:C) 24 h (Supplementary Fig. 1c)
Description: RAW 264.7, THP1, and mBMDM cells were seeded at a density of 2 × 10^5 cells/well in 96-well plates (BD Biosciences) or at 5 × 10^5 cells/well in 24-well plates (BD Biosciences) and were grown overnight. After 24 h of treatment, IFN-β secretion was measured by means of the LEGEND MAX Mouse IFN-β precoated ELISA Kit (BioLegend), IL-6 secretion was assessed by a Mouse IL-6 ELISA MAX Deluxe (BioLegend) or Mouse IL-6 Platinum ELISA (eBioscience), TNF-α production was assessed using the Mouse TNF alpha ELISA Ready-SET-Go! kit (eBioscience), and the IL-1β cytokine level was measured with the Mouse or Human IL-1β ELISA Ready-SET-Go! kit (eBioscience). hBMNCs were seeded at a density of 4 × 10^4/well in 96-well plates (BD Biosciences) and then grown overnight. After 24 h of treatment, the secretion levels of IL-6 and TNF-α were assessed using Human IL-6 ELISA MAX Deluxe (BioLegend) and Human TNF alpha ELISA MAX Deluxe (BioLegend), respectively. The plates were then analyzed on a microplate spectrophotometer system (Molecular Devices) at the appropriate wavelength.
Fig. 2 Inhibitory effects of TIP1 on TLR signaling pathways. a Cell viability was measured by the MTT assay upon the treatment of RAW 264.7 cells with various concentrations of TIP1 (12.5, 25, or 50 µM) for 24 h. […] The secretion of IFN-β was measured by an ELISA. q hPBMCs were treated with TIP1 in the presence or absence of LPS. […]

[3] = test system: IL-1R (HEK-Blue IL-1R cells); assay: SEAP activity (NF-κB), HEK-Blue IL-1R, IL-1β; type: cell-based; conditions: peptide 1 h before IL-1β (300 pg/ml), 24 h; n ≥ 3
Description: as §1
The TLR4-mediated response to LPS leads to a direct interaction between the TIR domains of TIRAP and MyD88, resulting in the subsequent activation of the MyD88-dependent downstream cascade. […] The inhibitory effects of the peptides (TIP1 and TIP2) in the absence of CPP were evaluated by measuring the SEAP activity in HEK-Blue hTLR4 cells. […]

[4] = target: T1, TLR4 TIR domain BB loop peptide; assay: SPR

| Kd [4] | Molecule | LPS-induced NF-κB activity (SEAP), peptides in the absence of CPP [1] | inhibitory effect on TNF-α secretion after removal of CPP [2] | LPS-induced SEAP activity (NF-κB) ([1]; CPP-conjugated peptide, 12.5 to 50 μM, peptide 1 h before LPS, 24 h) | IL-1β-induced NF-κB activity (SEAP) [3] |
| --- | --- | --- | --- | --- | --- |
|  | SHCRVLLI [TIP1 without CPP, TIP1 peptide not conjugated with CPP] | neither peptide significantly inhibited NF-κB activity | loss of the inhibitory effect |  |  |
|  | TIPLLS [TIP2 without CPP, TIP2 peptide not conjugated with CPP] | neither peptide significantly inhibited NF-κB activity | loss of the inhibitory effect |  |  |
|  | TIPLLS [TIP2, TIPLLS from the TIR domain of TIRAP, conjugated in tandem to a cell-penetrating peptide (…) at N terminus] |  |  | did not hinder LPS-induced NF-κB activity | did not exert any significant inhibitory effects |
| 40.2 µM | RQIKIWFQNRRMKWKKSHCRVLLI (also: biotinylated and immobilized) [TIP1 (TIRAP TIR-derived decoy peptide with N-terminal antennapedia CPP)] |  |  |  |  |
